Ends that are not written are not given here.
Experiments:
[1] = test system: MMS-induced Mre11myc foci; assay: Immunofluorescence of MMS-induced Mre11myc foci in vegetative yeast, 1,6-hexanediol treatment; assay type: cell-based, Saccharomyces cerevisiae SK1; settings: 5% 1,6-hexanediol, 4–5 minutes, spheroplasts, vegetative cells
Experimental: Following standard protocols, strains were patched on YPG plates, mated and streaked on YPD plates, and selected diploid colonies grown in liquid YPD at 30°C, 250 rpm, overnight. For meiotic synchronization, diploid cultures grown overnight in YPD were transferred to YPA (1% yeast extract, 2% peptone, 1% potassium acetate) at OD600 0.2 and grown for 12–14 hours at 30°C, 250 rpm. […]
Slides were blocked with 90% FBS, 1× PBS for 1 hour at room temperature in a humid chamber and then incubated with primary antibody (mouse mAb anti-myc, 1:200 (2276S, Cell Signaling Technology), rabbit anti-phospho H2A-S129, 1:200 (ab15083, abcam)) diluted in 3% BSA, 1× PBS in a humid chamber for 2 hours at 37°C or overnight at 4°C. Slides were washed three times with 1× PBS in a Coplin jar, were incubated with secondary antibody (goat anti-mouse IgG Alexa Fluor™ Plus 488, 1:200 (A32723, Invitrogen), donkey anti-rabbit IgG Alexa Fluor™ 546, 1:200 (A10040, Invitrogen) diluted in 3% BSA, 1× PBS in a humid chamber at 37°C for 1 hour. Slides were washed in the dark three times for 5 mins with 1× PBS, mounted with Vectashield containing DAPI (Vector Labs). Images were captured on a Zeiss Axio Observer with a 100×/1.4 NA oil immersion objective and were analyzed in ImageJ.

[2] = test system: mre11-ΔC49 and mre11-ΔIDR yeast strains; assay: MMS and CPT sensitivity assay (spotting of serial dilutions); assay type: cell-based, Saccharomyces cerevisiae SK1; settings: ten-fold serial dilutions on YPD plates, two days at 30°C; for resistance of mre11-ΔC49 mutant: mre11-ΔC49 strain; for resistance of mre11-ΔIDR mutants: mre11-ΔIDR strain
Experimental: Following standard protocols, strains were patched on YPG plates, mated and streaked on YPD plates, and selected diploid colonies grown in liquid YPD at 30°C, 250 rpm, overnight. For meiotic synchronization, diploid cultures grown overnight in YPD were transferred to YPA (1% yeast extract, 2% peptone, 1% potassium acetate) at OD600 0.2 and grown for 12–14 hours at 30°C, 250 rpm. Once the cultures reached OD600 between 1.2–1.6, cells were washed once with prewarmed sterile water and immediately transferred to sporulation medium supplemented with amino acids (320 μL amino acid complementation media for 100 mL of sporulation media (SPM)) and were kept shaking at 30°C, 250 rpm during the entire meiotic time-course. For MMS and CPT (Sigma) sensitivity assays, serial dilutions of overnight cultures were spotted on freshly prepared YPD-MMS or YPD-CPT plates containing indicated percentage of MMS or CPT, respectively. Plates were grown for two days at 30°C. For immunofluorescence of vegetatively growing cells, overnight cultures were refreshed by diluting to OD600 0.2 and grown for 3–4 hours to reach OD600 1.2–1.4 before subjecting to MMS or MMS followed by 5% 1,6-hexanediol treatment. For 5% 1,6-hexanediol treatment, cells were first converted to spheroplasts and then treated with 5% 1,6-hexanediol for 4–5 minutes. Spheroplasts were then immediately washed, lysed, and fixed using protocol described below.

Smt3 = molecular target: T1, Smt3 (Saccharomyces cerevisiae, UniProt Q12306); assay: NMR chemical shift perturbation of U-[13C,15N] Smt3 by SIM3 peptides; assay type: binding, yeast (S. cerevisiae); settings: [1H,15N] HSQC, 1.2 molar equivalents of peptide, 0.3 mM U-[13C,15N] Smt3, 20 mM sodium phosphate, 20 mM NaCl, pH 6.5, 10% D2O, 298 K, 800 MHz
T1 construct: 6xHis (C); made in house; host or cells: E. coli BL21 (DE3)pLysS
Experimental: For the production of the doubly labeled U-[^13C, ^15N] […] The purification protocol remained the same as described above.
The samples contained 0.3–0.6 mM of U-[^13C,^15N] […] All NMR spectra were acquired at 298 K on a Bruker Avance III HD 800 MHz spectrometer, equipped with a TCI cryoprobe. The NMR data were processed in TopSpin 3.6 (Bruker) or NMRPipe[70] and analyzed in CCPNMR[71]. Assignments of Smt3 backbone amide resonances were taken from literature[72] and verified by 3D HNCACB, HN(CO)CACB, and ^15N-edited NOESY-HSQC spectra. […] The assigned ^1H, ^13C and ^15N chemical shifts of the free and bound Smt3 have been deposited in the Biological Magnetic Resonance Bank (http://www.bmrb.wisc.edu/) under the accession number 53209.
The NMR binding experiments were performed by an incremental addition of wild-type or mutant SIM peptides (1.2 mM stocks in the working buffer) to 0.3 mM samples of U-[^13C,^15N] Smt3, with the spectral changes monitored in [^1H,^15N] HSQC spectra acquired at each increment. The average chemical shift perturbations (Δδavg) were calculated as Δδavg = (ΔδX^2/50 + ΔδH^2/2)^0.5, where ΔδX and ΔδH are the chemical shift changes of the backbone amide nitrogens or methyl carbons (ΔδX) and protons (ΔδH) of Smt3 residues upon addition of 1.2 molar equivalents of SIM peptides, and n = 50 or 9 for the backbone amide and methyl groups, respectively.

Mer2 [3] = assay: Co-expression NiNTA pulldown of MBP-Mre11-C49 (prey) with HisSUMO-Mer2 (bait); assay type: binding, S. cerevisiae; settings: co-expression in E. coli, anti-MBP elution/input signal normalized to wild type, at least seven independent samples
Excerpt: The vector for expression of ^MBPMre11-C49 and ^HisSUMOMer2 (pCCB1040) was based on a pET-Duet1 vector with the sequence coding for ^MBPMre11-C49 cloned within the first position (SacI site) and the sequence coding for ^HisSUMOMer2 cloned at the second position (XhoI site). The EQEK mutations and LLK mutations were introduced by PCR amplification of pCCB1040 with primers cb1561 and cb1562, and pp84 and pp85, followed by phosphorylation and self-ligation to yield plasmids pry59 and pry61, respectively.
Wild-type and mutant MBP-tagged Mre11-C49 and HisSUMO-tagged Mer2 were co-expressed in 50 mL of E. coli BL21 cultures and purified by affinity chromatography on Ni-NTA resin following a procedure similar to that described above. Briefly, cells were lysed by sonication and centrifuged at maximum speed for 30 mins at 4°C on a table-top centrifuge. A small fraction of the supernatant was collected as ‘Input’ and the remainder was incubated with 120 μL Ni-NTA resin, pre-equilibrated with wash buffer (25 mM HEPES pH 7.5, 20 mM imidazole, 0.1 mM DTT, 0.1 mM PMSF, 10% glycerol), for 1 hour on a rotating wheel at 4°C. The resin was washed twice with 2 ml in batch and five times with 2 ml on column before eluting with 250 μL of 500 mM imidazole in wash buffer. […]

Mer2 [4] = assay: In vitro colocalization of Mre11 with Mer2 condensates; assay type: binding, S. cerevisiae
Experimental: Proteins were diluted to a 10× stock of their appropriate working concentrations in their respective storage buffers. […] Unless specified otherwise, all reactions contained 400 nM ^Alexa488Mre11 or 100 nM ^eGFPMRX. A typical 20 μL binding reaction contained 2 μL protein of 10× stock of indicated concentration, 10 μL of 2× reaction buffer, and 150 ng of supercoiled pUC19 (5.7 nM). Typical reactions were assembled at 30°C for 30 mins with gentle mixing every 5 mins, unless mentioned otherwise. 5 μL was dropped onto a microscope slide and covered with a coverslip. All images were captured on a Zeiss Axio Observer with a 100×/1.4 NA oil immersion objective except for images provided in Figure 4G which were captured on Leica Stellaris DMI 8 confocal microscope with a 63x/1.2 NA water immersion objective. Images were analyzed with ImageJ using a custom-made script. In brief, 129.24 × 129.24-μm (2048 × 2048-pixel) images were thresholded to mean intensity of the background plus three times the standard deviation of the background. Masked foci were counted and the intensity inside the focus mask was integrated. Data points represent averages of at least 8–10 images per sample. Data were analyzed using Graphpad Prism 10.4.0.

T1 sequence (Q12306 whole entry): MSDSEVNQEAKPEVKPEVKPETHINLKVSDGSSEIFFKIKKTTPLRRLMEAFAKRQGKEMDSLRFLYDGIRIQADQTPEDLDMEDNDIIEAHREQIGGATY

OCCCCCCO [1,6-hexanediol]
effect on MMS-induced Mre11 foci [1]: readily dissolved MMS-induced foci

COS(C)(=O)=O [MMS, methylmethanesulfonate]
resistance of mre11-ΔC49 mutant [2]: resistant
resistance of mre11-ΔIDR mutants [2]: as resistant to MMS or CPT as wild-type cells

CC[C@@]1(O)C(=O)OCc2c1cc1n(c2=O)Cc2cc3ccccc3nc2-1 [camptothecin]
resistance of mre11-ΔC49 mutant [2]: resistant
resistance of mre11-ΔIDR mutants [2]: as resistant to MMS or CPT as wild-type cells

ENDIIMVSTDE [wild-type SIM3 peptide]
backbone amide chemical shift perturbation of Smt3 (Smt3): induced strong backbone amide chemical shift to Smt3 residues I35, F36, F37, K38, I39 and R46

Mre11-C49: Mre11 C-terminal residues (644–692) (SYGLLNGRKTKTKTRPAASTKTASRRGKGRASRTPKTDILGSLLAKKRK; also: MBP fusion, end not given here)
interaction of Mre11-C49 and Mer2 in pulldown (anti-MBP immunoblot) (Mer2 [3]): directly binds Mer2
localization of Mre11-C49 around Mer2 condensates (Mer2 [4]; 800 nM mScarletMre11-C49 and 200 nM eGFPMer2, 30 min): forms a halo-like structure around Mer2 condensates
independent condensate formation of Mre11-C49 (Mer2 [4]; 800 nM mScarletMre11-C49 without eGFPMer2): does not form condensates independently

Mre11-LLK: Mre11-C49 with L683, L686, and K690 mutated to alanine (SYGLLNGRKTKTKTRPAASTKTASRRGKGRASRTPKTDIAGSALAKARK; also: MBP fusion, end not given here)
interaction of Mre11-C49 and Mer2 in pulldown (anti-MBP immunoblot) (Mer2 [3]): strongly decreased the interaction between the two partners
